Experimental data from US7378234B2, “Method for isolating hepatitis C virus peptides” (Intercell AG, priority 2002, dated 2008).
Like-named read-outs stand apart in the source and are kept apart here.

What was measured:
HLA class I [1] = conditions: source data: literature reference; cited from earlier work
[2] = system: PBMC from HCV RNA-negativ therapy responders or subjects spontaneously recovered; experiment: IFN-gamma ELIspot with human PBMC from HCV therapy responders or spontaneously recovered subjects; conditions: directly ex vivo, donor H38; >8 significant
HLA class I [3] = experiment: HLA class I coverage of hotspots and epitopes, compiled from the Examples and Tables of this specification (epitope capture, HLA-transgenic animals, in vitro stimulation of human mononuclear cells); conditions: source data: Examples and Tables within this specification
Description: Thus, as even individual T-cell epitopes are not obvious within the sequence of a polypeptide, the same is even more the case for hotspots. Several radically different experimental approaches are combined according to the present invention for T-cell epitope identification, including epitope capture, HLA-transgenic animals and in vitro stimulation of human mononuclear cells. All three approaches are systematically applied on overlapping peptides spanning the antigen of interest, enabling comprehensive identification of epitopes (refer to CMV Epitope Capture patent). Upon such a comprehensive analysis, not limited to a particular HLA allele, but rather unravelling all possibly targeted epitopes within a population, epitope hotspots may become apparent. Within an antigen, only few if any sequences show characteristics of hotspots. Thus the identification of a hotspot is always a surprising event.

HLA class II = HLA class II coverage of hotspots and epitopes, compiled from the Examples and Tables of this specification (epitope capture, HLA-transgenic animals, in vitro stimulation of human mononuclear cells); conditions: source data: Examples and Tables within this specification
PBMC (in vitro primed) = experiment: IFN-gamma ELIspot after 2 rounds of in vitro priming of human PBMC; assay type: cell-based; conditions: donor H10
Protocol: Human PBMCs are repeatedly stimulated with antigen (peptide or peptide mixture) in the presence of IL-2 and IL-7. This leads to the selective oligoclonal expansion of antigen-specific T cells. Responses against individual epitopes can be assessed for instance by IFN-γ ELIspot assays. Freshly thawed PBMCs were cultured in 6 well plates (2-4×10^6/mL viable cells) in RPMI-1640 (GibcoBRL), 1% non-essential amino acids (GibcoBRL, cat# 11140-035), 1% Penicillin (10,000 U/ml)-Streptomycin (10,000 μg/ml) (GibcoBRL, cat#15140-122), 1% L-Glutamine (GibcoBRL), 0.1% beta-mercapto-ethanol (GibcoBRL), 1% Na-pyruvate (GibcoBRL), plus 10% Human AB serum (PAA, Linz, Austria). Peptides (10 μM each) were added to each well. rhIL-7 (Strathmann Biotech) was added at 10 ng/mL final concentration. 20-30 U/mL rhIL-2 (Strathmann Biotech) were added on day 4. On day 10, all cells were removed from plates, washed once in media (as above), and counted. For the next cycle of in vitro priming, viable cells were co-cultivated with autologous gamma irradiated (1.2 gray/min, for 20 minutes) PBMC as feeders (plated at 100,000 per well) and peptides, rh-IL-2 as described above. ELIspot was done as described above, except that 200,000 responder cells (pre-stimulated for 2 rounds of in vitro priming) were used together with 60,000 autologous irradiated […] cells.

Substance	HLA-class I coverage (HLA class I [1])	peptide-specific IFN-gamma secreting T-cells, donor H38 [2] [T-cells/10^6 PBMC]	HLA-class I coverage (HLA class I [3])	HLA-class II coverage (HLA class II)	peptide-specific IFN-gamma secreting T-cells, donor H10, after 2 rounds of in vitro stimulation (PBMC (in vitro primed)) [T-cells/10^6 PBMC]
1754 (DYPYRLWHY) [compound 1754]	Cw7				
DYPYRLWHYPCTVNYTIFKI [Peptide 1800]		35	Cw7,A24,A11	DR7	95
